Results published in ChEMBL document CHEMBL1142066, “In vitro effects of antimicrobial agents on planktonic and biofilm forms of Staphylococcus lugdunensis clinical isolates” (2007).
≈ marks a conversion by molar mass, not a printed value. Calls of active or inactive are those of the source. No cut-off for these calls is given here.

Key:
[1] = test system: Staphylococcus lugdunensis; test: Antimicrobial susceptibility of Staphylococcus lugdunensis IDRL2394 biofilms after 24 hrs assessed as bacterial regrowth; type: functional
[2] = test system: Staphylococcus lugdunensis; test: Antimicrobial susceptibility of Staphylococcus lugdunensis IDRL2664 biofilms after 24 hrs assessed as bacterial regrowth; type: functional
[3] = test system: Staphylococcus lugdunensis; test: Antimicrobial susceptibility of Staphylococcus lugdunensis isolates by broth microdilution method; type: functional; details: for MIC50 / MIC90: Staphylococcus lugdunensis
[4] = test system: Staphylococcus lugdunensis; test: Antimicrobial susceptibility of Staphylococcus lugdunensis IDRL5256 biofilms after 24 hrs assessed as bacterial regrowth; type: functional
[5] = test system: Staphylococcus lugdunensis; test: Antimicrobial susceptibility of Staphylococcus lugdunensis IDRL5254 biofilms after 24 hrs assessed as bacterial regrowth; type: functional
[6] = test system: Staphylococcus lugdunensis; test: Increase in biofilm formation of Staphylococcus lugdunensis assessed as percent biofilm forming isolates; type: functional
[7] = test system: Staphylococcus lugdunensis; test: Antimicrobial susceptibility of Staphylococcus lugdunensis IDRL2414 biofilms after 24 hrs assessed as bacterial regrowth; type: functional
[8] = test system: Staphylococcus lugdunensis; test: Antimicrobial susceptibility of Staphylococcus lugdunensis IDRL2639 biofilms after 24 hrs assessed as bacterial regrowth; type: functional
[9] = test system: Staphylococcus lugdunensis; test: Antimicrobial susceptibility of Staphylococcus lugdunensis IDRL2554 biofilms after 24 hrs assessed as bacterial regrowth; type: functional
[10] = test system: Staphylococcus lugdunensis; test: Antimicrobial susceptibility of Staphylococcus lugdunensis IDRL5258 biofilms after 24 hrs assessed as bacterial regrowth; type: functional
[11] = test system: Staphylococcus lugdunensis; test: Antimicrobial susceptibility of Staphylococcus lugdunensis IDRL856 biofilms after 24 hrs assessed as bacterial regrowth; type: functional
[12] = test system: Staphylococcus lugdunensis; test: Antimicrobial susceptibility of Staphylococcus lugdunensis IDRL2622 biofilms after 24 hrs assessed as bacterial regrowth; type: functional
[13] = test system: Staphylococcus lugdunensis; test: Antimicrobial susceptibility of Staphylococcus lugdunensis IDRL2588 biofilms after 24 hrs assessed as bacterial regrowth; type: functional
[14] = test system: Staphylococcus lugdunensis; test: Antimicrobial susceptibility of Staphylococcus lugdunensis IDRL5204 biofilms after 24 hrs assessed as bacterial regrowth; type: functional
[15] = test system: Staphylococcus lugdunensis; test: Effect on biofilm formation of Staphylococcus lugdunensis assessed as percent non-biofilm forming isolates; type: functional; design: concentration or dose not given beside the values
[16] = test system: Staphylococcus lugdunensis; test: Decrease in biofilm formation of Staphylococcus lugdunensis assessed as percent biofilm forming isolates; type: functional; design: concentration or dose not given beside the values
[17] = test system: Staphylococcus lugdunensis; test: Antimicrobial susceptibility of Staphylococcus lugdunensis IDRL2526 biofilms after 24 hrs assessed as bacterial regrowth; type: functional
[18] = test system: Staphylococcus lugdunensis; test: Antimicrobial susceptibility of Staphylococcus lugdunensis IDRL2492 biofilms after 24 hrs assessed as bacterial regrowth; type: functional
[19] = test system: Staphylococcus lugdunensis; test: Antimicrobial susceptibility of Staphylococcus lugdunensis IDRL2640 biofilms after 24 hrs assessed as bacterial regrowth; type: functional
[20] = test system: Staphylococcus lugdunensis; test: Antimicrobial susceptibility of Staphylococcus lugdunensis IDRL5204 isolate from prosthetic joint infection patient by broth microdilution method; type: functional
Staphylococcus aureus [21] = test: Increase in biofilm formation of Staphylococcus aureus SA113 at 0.25 times MIC; type: functional, organism-based
[22] = test system: Staphylococcus epidermidis; test: Increase in biofilm formation of Staphylococcus epidermidis RP62A at 0.25 times MIC; type: functional, organism-based
[23] = test system: Staphylococcus lugdunensis; test: Antimicrobial susceptibility of Staphylococcus lugdunensis IDRL5256 isolate from prosthetic joint infection patient by broth microdilution method; type: functional
[24] = test system: Staphylococcus lugdunensis; test: Antimicrobial susceptibility of Staphylococcus lugdunensis IDRL5254 isolate from intravascular catheter infection patient by broth microdilution method; type: functional
[25] = test system: Staphylococcus lugdunensis; test: Antimicrobial susceptibility of Staphylococcus lugdunensis IDRL2394 isolate from prosthetic joint infection patient by broth microdilution method; type: functional
[26] = test system: Staphylococcus lugdunensis; test: Ratio of MBC to MIC for Staphylococcus lugdunensis IDRL5256 isolate from prosthetic joint infection patient by broth microdilution method; type: functional
[27] = test system: Staphylococcus epidermidis; test: Decrease in biofilm formation of Staphylococcus epidermidis RP62A; type: functional, organism-based
Staphylococcus aureus [28] = test: Decrease in biofilm formation of Staphylococcus aureus SA113; type: functional, organism-based
[29] = test system: Staphylococcus lugdunensis; test: Stimulation of Staphylococcus lugdunensis IDRL5256 biofilm formation; type: functional, organism-based

Row | MIC50 [3] | MIC90 [3] | SMILES | BBC [1] | MBC50 [3] | MBC90 [3] | BBC [4] | BBC [5] | Activity [6] | BBC [7] | BBC [8] | BBC [10] | BBC [11] | BBC [12] | BBC [13] | BBC [14] | Activity [15] | Activity [16] | BBC [17] | BBC [18] | BBC [19] | other results
1 | 0.25 µg/mL (≈ 0.55 µM) | 0.5 µg/mL (≈ 1.1 µM) | Cc1nnc(SCC2=C(C(=O)O)N3C(=O)[C@@H](NC(=O)Cn4cnnn4)[C@H]3SC2)s1 [CEFAZOLIN] | >128 µg/mL | 0.5 µg/mL (≈ 1.1 µM) | 1 µg/mL (≈ 2.2 µM) | >128 µg/mL | >128 µg/mL | 13% | >128 µg/mL | 4 µg/mL | >128 µg/mL | >128 µg/mL | 2 µg/mL | >128 µg/mL | 1 µg/mL | 80% | 7% | >128 µg/mL | >128 µg/mL | >128 µg/mL | BBC [2]: 8 µg/mL; BBC [9]: >128 µg/mL
2 | 0.25 µg/mL (≈ 0.563 µM) | 1 µg/mL (≈ 2.25 µM) | CN(C)[C@@H]1C(O)=C(C(N)=O)C(=O)[C@@]2(O)C(O)=C3C(=O)c4c(O)cccc4[C@@](C)(O)[C@H]3C[C@@H]12 [TETRACYCLINE] | 128 µg/mL | >32 µg/mL | >32 µg/mL | 128 µg/mL | 128 µg/mL | 7% | 128 µg/mL | 16 µg/mL | 64 µg/mL | 128 µg/mL | 128 µg/mL | 128 µg/mL | 1 µg/mL | 0% | 93% | 128 µg/mL | 128 µg/mL | 128 µg/mL | BBC [2]: 128 µg/mL; BBC [9]: 128 µg/mL; Activity [29]: Active
3 | 0.125 µg/mL (≈ 0.311 µM) | 0.25 µg/mL (≈ 0.623 µM) | COc1c(N2C[C@@H]3CCCN[C@@H]3C2)c(F)cc2c(=O)c(C(=O)O)cn(C3CC3)c12 [MOXIFLOXACIN] | 2 µg/mL | 0.125 µg/mL (≈ 0.311 µM) | 0.25 µg/mL (≈ 0.623 µM) | 1 µg/mL | 0.5 µg/mL | 27% | 0.5 µg/mL | 0.25 µg/mL | <=0.125 ug ml-1 | 0.25 µg/mL | 2 µg/mL | 0.5 µg/mL | 0.5 µg/mL | 33% | 40% | 0.5 µg/mL | 0.25 µg/mL | 2 µg/mL | BBC [2]: <=0.125 ug ml-1; BBC [9]: <=0.125 ug ml-1

More lines, now with the values behind:

Row | SMILES | MIC50 [3] | MIC90 [3] | BBC [1] | MBC50 [3] | MBC90 [3] | BBC [4] | BBC [5] | Activity [6] | BBC [7] | BBC [8] | BBC [10] | BBC [11] | BBC [12] | BBC [13] | BBC [14] | Activity [15] | Activity [16] | BBC [17] | BBC [18] | BBC [19] | other results
4 | CCCCCCCCCC(=O)N[C@@H](Cc1c[nH]c2ccccc12)C(=O)N[C@H](CC(N)=O)C(=O)N[C@@H](CC(=O)O)C(=O)N[C@@H]1C(=O)NCC(=O)N[C@@H](CCCN)C(=O)N[C@@H](CC(=O)O)C(=O)N[C@H](C)C(=O)N[C@@H](CC(=O)O)C(=O)NCC(=O)N[C@H](CO)C(=O)N[C@@H]([C@H](C)CC(=O)O)C(=O)N[C@@H](CC(=O)c2ccccc2N)C(=O)O[C@@H]1C | 0.125 µg/mL (≈ 0.0771 µM) | 0.25 µg/mL (≈ 0.154 µM) | 64 µg/mL | 0.5 µg/mL (≈ 0.309 µM) | 1 µg/mL (≈ 0.617 µM) | 64 µg/mL | 128 µg/mL | 13% | >128 µg/mL | 32 µg/mL | 16 µg/mL | 16 µg/mL | 1 µg/mL | 128 µg/mL | 8 µg/mL | 87% | 0% | 8 µg/mL | 8 µg/mL | >128 µg/mL | BBC [2]: 32 µg/mL; BBC [9]: 4 µg/mL
5 | COc1cc(Cc2cnc(N)nc2N)cc(OC)c1OC [TRIMETHOPRIM] |  |  |  |  |  |  |  |  |  |  |  |  |  |  |  |  |  |  |  |  | MIC [20]: 16 µg/mL (≈ 55.1 µM)
6 | CC(=O)NC[C@H]1CN(c2ccc(N3CCOCC3)c(F)c2)C(=O)O1 [LINEZOLID] | 1 µg/mL (≈ 2.96 µM) | 1 µg/mL (≈ 2.96 µM) | >128 µg/mL | >128 µg/mL | >128 µg/mL | >128 µg/mL | >128 µg/mL | 0% | >128 µg/mL | >128 µg/mL | >128 µg/mL | >128 µg/mL | >128 µg/mL | >128 µg/mL | 4 µg/mL | 20% | 80% | >128 µg/mL | >128 µg/mL | >128 µg/mL | BBC [2]: >128 µg/mL; Activity (Staphylococcus aureus [21]): Active; BBC [9]: >128 µg/mL; Activity [22]: Active
7 | CN[C@H](CC(C)C)C(=O)N[C@H]1C(=O)N[C@@H](CC(N)=O)C(=O)N[C@H]2C(=O)N[C@H]3C(=O)N[C@H](C(=O)N[C@H](C(=O)O)c4cc(O)cc(O)c4-c4cc3ccc4O)[C@H](O)c3ccc(c(Cl)c3)Oc3cc2cc(c3O[C@@H]2O[C@H](CO)[C@@H](O)[C@H](O)[C@H]2O[C@H]2C[C@](C)(N)[C@H](O)[C@H](C)O2)Oc2ccc(cc2Cl)[C@H]1O [VANCOMYCIN] | 1 µg/mL (≈ 0.69 µM) | 2 µg/mL (≈ 1.38 µM) | >128 µg/mL | >128 µg/mL | >128 µg/mL | >128 µg/mL | >128 µg/mL | 27% | >128 µg/mL | >128 µg/mL | >128 µg/mL | >128 µg/mL | >128 µg/mL | >128 µg/mL | 4 µg/mL | 47% | 27% | >128 µg/mL | >128 µg/mL | >128 µg/mL | BBC [2]: 8 µg/mL; MBC [23]: 4 µg/mL (≈ 2.76 µM); MBC [24]: 64 µg/mL (≈ 44.2 µM); MBC [25]: 64 µg/mL (≈ 44.2 µM); BBC [9]: 4 µg/mL; Ratio [26]: >=64
8 | Cc1cc(NS(=O)(=O)c2ccc(N)cc2)no1 [SULFAMETHOXAZOLE] |  |  |  |  |  |  |  |  |  |  |  |  |  |  |  |  |  |  |  |  | MIC [20]: 304 µg/mL (≈ 1200 µM)
9 | CCOc1ccc2ccccc2c1C(=O)N[C@@H]1C(=O)N2[C@@H]1SC(C)(C)[C@@H]2C(=O)O [NAFCILLIN] | 0.5 µg/mL (≈ 1.21 µM) | 0.5 µg/mL (≈ 1.21 µM) | >128 µg/mL | 0.5 µg/mL (≈ 1.21 µM) | 2 µg/mL (≈ 4.83 µM) | >128 µg/mL | >128 µg/mL | 93% | >128 µg/mL | 1 µg/mL | 0.5 µg/mL | 16 µg/mL | 8 µg/mL | 8 µg/mL | 0.5 µg/mL | 7% | 0% | 4 µg/mL | 8 µg/mL | >128 µg/mL | BBC [2]: 2 µg/mL; Activity [27]: Active; BBC [9]: 2 µg/mL; Activity (Staphylococcus aureus [28]): Active
10 | CO[C@H]1/C=C/O[C@@]2(C)Oc3c(C)c(O)c4c(O)c(c(/C=N/N5CCN(C)CC5)c(O)c4c3C2=O)NC(=O)/C(C)=C\C=C\[C@H](C)[C@H](O)[C@@H](C)[C@@H](O)[C@@H](C)[C@H](OC(C)=O)[C@@H]1C [RIFAMPIN] | ≤ 0.03 µg/mL | ≤ 0.03 µg/mL | 0.25 µg/mL | 8 µg/mL (≈ 9.72 µM) | >32 µg/mL | 32 µg/mL | 64 µg/mL | 7% | 0.25 µg/mL | 32 µg/mL | 8 µg/mL | 8 µg/mL | 64 µg/mL | 64 µg/mL | 32 µg/mL | 93% | 0% | 32 µg/mL | 64 µg/mL | 64 µg/mL | 
